According to article PMC7118210 (Frontiers in Pharmacology, 2020):
Where two headings read alike, the source gives them in different places.

Legend:
[1] = design: method as in Liu M. et al., 2012; details: dogs, ref Liu M. et al., 2012, cited from earlier work
[2] = Excretion in human urine and feces (mass balance); type: in vivo; details: for time within which excreted: humans
Procedure: All blood samples were transferred into heparin-treated centrifuge tubes and centrifuged for 10 min at 4,000 rpm and 4°C. All human urine samples were mixed and transferred (4 ml) into storage tubes. All biological samples were stored at −80°C.
The optimal volume and activity in unit volume of enzyme solution [0.2 M acetic acid/water solution: 0.2 M ammonium acetate/water solution, 15:35 (v/v)] were determined through a pretest of the enzyme (rat plasma, 10 μl, 10 U μl^-1; dog plasma, 10 μl, 10 U μl^-1; human plasma, 20 μl, 20 U μl^-1; human urine, 10 μl, 10 U μl^-1). […] To each fecal sample, 9-fold methanol-normal saline (2:1, v/v) was added, mixed (18,000 rpm, 15 min) by vortexing and centrifuged (10 min, 9,000 rpm, 4°C). […] Then, all plasma, urine, and fecal samples were extracted with ethyl acetate (rat plasma, 800 μl; dog plasma, 1,000 μl; human plasma, 3,000 μl; human urine, 3,000 μl; human feces, 3,000 μl) for at least 3 min by vortexing, centrifuged for 10 min at 3,900 rpm and 4°C; supernatants were transferred into centrifuge tubes and dried with N2. The solid material was dissolved with acetonitrile-water (1:1, v/v) and injected into the ultra high-performance liquid chromatography coupled with triple quadrupole mass spectrometry (UHPLC/MS/MS) system as described below.
The analysis of nonclinical and clinical samples was performed with a UHPLC/MS/MS system that consisted of a Shimadzu Nexera X2 ultra high-performance liquid chromatography (UHPLC) (Shimadzu Corp., Kyoto, Japan) coupled with an AB Sciex API4000 triple-quadrupole mass spectrometry (MS/MS) system (AB Sciex, Foster City, CA, USA) equipped with an electrospray ionization source and controlled by Analyst (v. 1.6.2) software. […] The mobile phase consisted of 0.1% formic acid (v/v) in water (A) and 0.1% formic acid in acetonitrile (B) using a linear gradient of 90% A (0–0.5 min), 90 to 60% A (0.5–1.5 min), 60% to 40% A (1.5–3.5 min), 40% to 10% A (3.5–4.5 min), 10% A (4.5–5.5 min), 10% to 90% A (5.5–6.0 min), and 90% A (6.0–7.5 min) for plasma; and 80% A (0–0.2 min), 80 to 64% A (0.2–2.0 min), 64% to 63% A (2.0–4.4 min), 63% to 0% A (4.4–4.5 min), 0% A (4.5–5.5 min), 0% to 90% A (5.5–5.6 min), 90% A (5.6–5.9 min), 90% to 35% A (5.9–6.0 min), 35% A (6.0–6.2 min), 35 to 80% A (6.2–6.3 min), and 80% A (6.3–7.5 min) for urine and feces. The injection volume was 10 μl with the flow rate of 0.3 ml min^-1 for plasma, and 0.4 ml min^-1 for urine and feces. The compounds were detected by multiple reaction monitoring in the negative ion electrospray mode. The electrospray source conditions were as follows: ion source gas1 30 psi, ion source gas2 60 psi, curtain gas 20 psi, collisionally activated dissociation (CAD) gas 8 psi, temperature 500°C, and ion spray voltage −4,500 V. Zero air was used for ion source gas1 and ion source gas2 and nitrogen for curtain gas and CAD gas.
Next, 9-fold normal saline, instead of ninefold methanol-normal saline (2:1, v/v), was added to maintain enzyme activity in the feces. […] These samples were maintained at 37°C for 12 h.

[3] = naringin 160 mg, three times a day, p.o., human
[4] = naringin 160 mg (high-fat diet) p.o., human

SMILES | time within which excreted [1] [h] | time within which excreted [2] [h] | cumulative excretion in feces, Naringenin [2, 3] | cumulative excretion in urine, Naringenin [2, 3] | cumulative excretion percentage ([1]; in the forms of naringin, naringenin, and 4-hydroxyphenylpropionic acid) [%] | cumulative excretion in feces, Naringin ([2]; naringin 40 mg p.o., human) | cumulative excretion in urine, Naringin ([2]; naringin 40 mg p.o., human) | cumulative excretion in feces, Naringin ([2]; naringin 80 mg p.o., human) | cumulative excretion in urine, Naringin ([2]; naringin 80 mg p.o., human) | cumulative excretion in feces, Naringin [2, 4] | cumulative excretion in urine, Naringin [2, 4] | cumulative excretion in feces, Naringin ([2]; naringin 160 mg p.o., human) | cumulative excretion in urine, Naringin ([2]; naringin 160 mg p.o., human) | cumulative excretion in feces, Naringin [2, 3] | cumulative excretion in urine, Naringin [2, 3] | cumulative excretion in feces, Naringin ([2]; naringin 320 mg p.o., human) | cumulative excretion in urine, Naringin ([2]; naringin 320 mg p.o., human) | cumulative excretion in feces, Naringin ([2]; naringin 480 mg p.o., human) | cumulative excretion in urine, Naringin ([2]; naringin 480 mg p.o., human)
O=C1C[C@@H](c2ccc(O)cc2)Oc2cc(O)cc(O)c21 [naringenin, Naringenin] | ≤ 24 | ≤ 48 | 1.83 ± 2.32 % of dose | 28.3 ± 43.2 % of dose |  |  |  |  |  |  |  |  |  |  |  |  |  |  | 
C[C@@H]1O[C@@H](O[C@H]2[C@H](Oc3cc(O)c4c(c3)O[C@H](c3ccc(O)cc3)CC4=O)O[C@H](CO)[C@@H](O)[C@@H]2O)[C@H](O)[C@H](O)[C@H]1O [naringin, Naringin] | ≤ 24 | ≤ 48 |  |  | 60 | 0.122 ± 0.202 % of dose | 0.067 ± 0.039 % of dose | 0.023 ± 0.036 % of dose | 0.037 ± 0.013 % of dose | 9.85 ± 20.0 % of dose | 0.025 ± 0.008 % of dose | 0.016 ± 0.023 % of dose | 0.027 ± 0.014 % of dose | 0.563 ± 1.00 % of dose | 0.034 ± 0.014 % of dose | 0.126 ± 0.325 % of dose | 0.033 ± 0.026 % of dose | 0.023 ± 0.033 % of dose | 0.012 ± 0.004 % of dose
